The test addresses transferrin receptor (hTfR) (Homo sapiens, UniProt P02786). Briefly: Intermolecular interaction evaluation test between transferrin receptor (hTfR) and peptide by surface plasmon resonance (SPR). Format: binding. Summed up:
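hTfR captured on Ni-NTA chip then amine-coupled; peptides run single-cycle kinetics at 5–100 nM in 10 mM HEPES pH 8.0, 150 mM NaCl, 0.05% Tween 20, 0.1% BSA, 1.0% DMSO. KD from least-squares curve fitting of sensorgrams.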
On the technique in general: SPR reads the build-up and loss of mass on a sensor chip optically.

The mark [1] stands for this setting: SPR, hTfR No. 894 variants with PEG12c linker (Table 2), read-out: KD.
Setting [2] is: binding to hTfR by SPR, Table 2 peptides, read-out: KD value (SPR) class.
Where [3] appears, read: surface plasmon resonance, hTfR, read-out: KD value for hTfR by SPR (class symbol).

Read-outs that look alike come from different tables or passages of the source. Where a SMILES comes first, the peptide text is derived from it. Bridges are numbered along the chain shown (N, C = ends). [ ]: non-standard residue; d: D form. The star is where a group is joined. PEG12 = NCCOCCOCCOCCOCCOCCOCCOCCOCCOCCOCCOCCOCCC(=O)O; NMePhe(3-Cl) = CN[C@@H](Cc1cccc(Cl)c1)C(=O)O; NMeW = CN[C@@H](Cc1c[nH]c2ccccc12)C(=O)O; X4 = O=C1C=CC(=O)N1CC1CCC(C(=O)*)CC1; NMeY = CN[C@@H](Cc1ccc(O)cc1)C(=O)O; NMeF = CN[C@@H](Cc1ccccc1)C(=O)O; Chg = N[C@H](C(=O)O)C1CCCCC1; PEG4 = NCCOCCOCCOCCOCCC(=O)O; Orn = NCCC[C@H](N)C(=O)O; Nva = CCC[C@H](N)C(=O)O; Dap = NC[C@H](N)C(=O)O

Chain of transferrin receptor (hTfR) (P02786 whole entry): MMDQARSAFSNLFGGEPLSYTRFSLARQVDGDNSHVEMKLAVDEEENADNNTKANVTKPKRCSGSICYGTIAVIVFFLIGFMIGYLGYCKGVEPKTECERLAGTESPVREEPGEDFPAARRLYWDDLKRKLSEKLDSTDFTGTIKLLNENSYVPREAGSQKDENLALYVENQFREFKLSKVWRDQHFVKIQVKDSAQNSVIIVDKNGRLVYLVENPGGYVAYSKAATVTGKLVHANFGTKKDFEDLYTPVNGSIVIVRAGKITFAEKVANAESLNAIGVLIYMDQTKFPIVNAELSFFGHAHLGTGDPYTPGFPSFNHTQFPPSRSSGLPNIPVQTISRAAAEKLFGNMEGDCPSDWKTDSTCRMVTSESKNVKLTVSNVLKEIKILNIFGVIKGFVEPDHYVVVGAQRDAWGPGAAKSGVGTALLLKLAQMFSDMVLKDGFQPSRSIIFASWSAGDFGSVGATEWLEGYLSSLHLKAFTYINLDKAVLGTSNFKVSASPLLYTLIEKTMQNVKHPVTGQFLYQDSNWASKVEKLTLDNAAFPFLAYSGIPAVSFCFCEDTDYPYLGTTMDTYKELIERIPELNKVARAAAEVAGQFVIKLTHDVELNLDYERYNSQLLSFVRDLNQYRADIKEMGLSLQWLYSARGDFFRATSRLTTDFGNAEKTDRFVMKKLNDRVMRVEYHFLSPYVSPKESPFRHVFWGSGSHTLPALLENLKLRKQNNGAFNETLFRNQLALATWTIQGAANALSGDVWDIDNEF

As a reminder, the Kd is the constant that tells how readily two partners part at equilibrium. As to `CC[C@H](C)[C@@H]1NC(=O)[C@H](Cc2ccc(OC)cc2)NC(=O)[C@H](Cc2ccc(O)cc2)NC(=O)[C@H](CC(N)=O)NC(=O)[C@H](Cc2c[nH]c3ccccc23)NC(=O)[C@H](C(C)C)NC(=O)[C@H](Cc2cccc(Cl)c2)N(C)C(=O)[C@H](CCC(=O)O)NC(=O)[C@H](C)NC(=O)CSC[C@@H](C(=O)NCC(=O)NCC(=O)N[C@@H](CO)C(=O)NCC(=O)N[C@@H](CO)C(=O)NCC(=O)N[C@@H](CCCCNC(=O)C2CCC(CN3C(=O)C=CC3=O)CC2)C(N)=O)NC(=O)[C@H](Cc2ccc(O)cc2)N(C)C(=O)[C@H](Cc2ccccc2)NC(=O)[C@@H](CCCNC(=N)N)NC(=O)[C@H](CCCNC(=N)N)NC(=O)[C@H]([C@@H](C)CC)NC1=O` (stereo partly shown) [compound 222] ({CH2CO}-AE[NMePhe(3-Cl)]VWNYY(Me)IIR[dR]F[NMeY]CGGSGSGK(X4)-NH2; thioether N-15), the equilibrium dissociation constant (Kd) (SPR, peptides, linker-added peptides and FITC conjugates, Patent ID 203-230, read-out: KD) fell in the range of 1 to 100 nM.

`CC[C@H](C)[C@@H]1NC(=O)[C@H](Cc2ccc(OCCN)cc2)NC(=O)[C@H](Cc2ccc(O)cc2)NC(=O)[C@H](CC(N)=O)NC(=O)[C@H](Cc2c[nH]c3ccccc23)NC(=O)[C@H](C(C)C)NC(=O)[C@H](Cc2ccccc2)N(C)C(=O)[C@H](C(C)C)NC(=O)[C@H](C)NC(=O)CSC[C@@H](C(N)=O)NC(=O)[C@H](Cc2ccc(O)cc2)N(C)C(=O)[C@H](Cc2ccccc2)NC(=O)[C@@H](CCCNC(=N)N)NC(=O)[C@H](CCCNC(=N)N)NC(=O)[C@H]([C@@H](C)CC)NC1=O` [compound 523]: the Kd (SPR, hTfR, class symbols A-D, read-out: KD (column without head, continuation of the table series)) was 100 to 1000 nM.

Take `CC[C@H](C)[C@@H]1NC(=O)[C@H](Cc2ccc(O)cc2)NC(=O)[C@H](Cc2c[nH]c3ccccc23)NC(=O)[C@H](CC(N)=O)NC(=O)[C@H](Cc2c[nH]c3ccccc23)NC(=O)[C@H](C(C)C)NC(=O)[C@H](Cc2ccccc2)N(C)C(=O)[C@H](C(C)C)NC(=O)[C@H](C)NC(=O)CSC[C@@H](C(=O)NCCOCCOCCOCCOCCOCCOCCOCCOCCOCCOCCOCCOCCC(N)=O)NC(=O)[C@H](Cc2ccc(O)cc2)N(C)C(=O)[C@H](Cc2ccc(O)cc2)NC(=O)[C@H](CCCNC(=N)N)NC(=O)[C@H](CCCNC(=N)N)NC(=O)[C@H]([C@@H](C)CC)NC1=O` [compound 125] ({CH2CO}-AV[NMeF]VWNWYIIRRY[NMeY]C[PEG12]-NH2; thioether N-15): the Kd under setting [1] lay within 1 to 100 nM.

Take `CC[C@H](C)[C@@H]1NC(=O)[C@H](Cc2ccc(O)cc2)NC(=O)[C@H](Cc2ccc(O)cc2)NC(=O)[C@H](CC(N)=O)NC(=O)[C@H](Cc2c[nH]c3ccccc23)NC(=O)[C@H](C(C)C)NC(=O)[C@H](Cc2ccccc2)NC(=O)[C@H](C(C)C)NC(=O)[C@H](C)NC(=O)CSC[C@@H](C(N)=O)NC(=O)[C@H](Cc2ccc(O)cc2)N(C)C(=O)[C@H](CCCNC(=N)N)NC(=O)[C@H](CCCNC(=N)N)NC(=O)[C@H](CCCNC(=N)N)NC(=O)[C@H]([C@@H](C)CC)NC1=O` [compound 260]: the Kd under setting [2] was 1 to 100 nM.

As for `CC[C@H](C)[C@@H]1NC(=O)[C@H](Cc2ccc(O)cc2)NC(=O)[C@H](Cc2ccc(O)cc2)NC(=O)[C@H](CC(N)=O)NC(=O)[C@H](Cc2c[nH]c3ccccc23)NC(=O)[C@H](C(C)C)NC(=O)[C@H](Cc2ccc(OC)cc2)N(C)C(=O)[C@H](C(C)C)NC(=O)[C@H](C)NC(=O)CSC[C@@H](C(=O)NCCOCCOCCOCCOCCOCCOCCOCCOCCOCCOCCOCCOCCC(N)=O)NC(=O)[C@H](Cc2ccc(O)cc2)N(C)C(=O)[C@H](Cc2ccc(O)cc2)NC(=O)[C@H](CCCNC(=N)N)NC(=O)[C@H](CCCNC(=N)N)NC(=O)[C@H]([C@@H](C)CC)NC1=O` [compound 136] ({CH2CO}-AV[NMeY](Me)VWNYYIIRRY[NMeY]C[PEG12]-NH2; thioether N-15), the Kd under setting [1] lay within 1 to 100 nM.

Turning to `CC[C@H](C)[C@@H]1NC(=O)[C@H](Cc2ccc(O)cc2)NC(=O)[C@H](Cc2ccc(O)cc2)NC(=O)[C@H](CC(N)=O)NC(=O)[C@H](Cc2c[nH]c3ccccc23)NC(=O)[C@H](C(C)C)NC(=O)[C@H](Cc2ccccc2)N(C)C(=O)[C@H](C(C)C)NC(=O)[C@H](C)NC(=O)CSC[C@@H](C(=O)N[C@H](CCC(=O)O)C(N)=O)NC(=O)[C@H](Cc2ccc(O)cc2)N(C)C(=O)[C@H](Cc2ccc(O)cc2)NC(=O)[C@H](CCCNC(=N)N)NC(=O)[C@H](C)NC(=O)[C@H]([C@@H](C)CC)NC1=O` [compound 291] ({CH2CO}-AV[NMeF]VWNYYIIARY[NMeY]C[dE]-NH2; thioether N-15), the dissociation constant Kd (surface plasmon resonance, peptide vs hTfR, read-out: KD value, hTfR binding by SPR (class symbol)) was 1 to 100 nM.

As to `CC[C@H](C)[C@@H]1NC(=O)[C@@H]2CCCNC(=O)CC[C@H](NC(=O)[C@H](C(C)C)NC(=O)[C@H](C)NC(=O)CSC[C@@H](C(N)=O)NC(=O)[C@H](Cc3ccc(O)cc3)N(C)C(=O)[C@H](Cc3ccc(O)cc3)NC(=O)[C@H](CCCNC(=N)N)NC(=O)[C@H](CCCNC(=N)N)NC(=O)[C@H]([C@@H](C)CC)NC1=O)C(=O)N[C@@H](C(C)C)C(=O)N(C)[C@@H](Cc1c[nH]c3ccccc13)C(=O)N[C@@H](CC(N)=O)C(=O)N[C@@H](Cc1ccc(O)cc1)C(=O)N2` [compound 415] ({CH2CO}-AVEV[NMeW]NY[Orn]IIRRY[NMeY]C-NH2; lactam 3-8 (inferred); thioether N-15 (inferred)), the Kd (surface plasmon resonance, peptide vs hTfR, read-out: KD value for hTfR by SPR (class symbol)) fell in the range of 100 to 1000 nM.

In the case of `CC[C@H](C)[C@@H]1NC(=O)[C@H](Cc2ccc(OC)cc2)NC(=O)[C@H](Cc2ccc(O)cc2)NC(=O)[C@H](CC(N)=O)NC(=O)[C@H](Cc2c[nH]c3ccccc23)N(C)C(=O)[C@H](C(C)C)NC(=O)[C@H](Cc2cccc(Cl)c2)N(C)C(=O)[C@H](C(C)C)NC(=O)[C@H](C)NC(=O)CSC[C@@H](C(=O)NCC(=O)N[C@H](CCC(=O)O)C(=O)NCC(=O)N[C@H](CCCCN)C(=O)N[C@@H](CO)C(=O)N[C@@H](CO)C(=O)N[C@@H](CS)C(N)=O)NC(=O)[C@H](Cc2ccc(O)cc2)N(C)C(=O)[C@H](Cc2ccccc2)NC(=O)[C@@H](CCCNC(=N)N)NC(=O)[C@H](CCCNC(=N)N)NC(=O)[C@H]([C@@H](C)CC)NC1=O` [compound 404] ({CH2CO}-AV[NMePhe(3-Cl)]V[NMeW]NYY(Me)IIR[dR]F[NMeY]CG[dE]G[dK]SSC-NH2; thioether N-15), under setting [3], the Kd lay in the range of 1 to 100 nM.

`CC[C@H](C)[C@@H]1NC(=O)[C@H](C2CCCCC2)NC(=O)[C@H](Cc2ccc(O)cc2)NC(=O)[C@H](Cc2ccc(O)cc2)NC(=O)[C@H](CC(N)=O)NC(=O)[C@H](Cc2c[nH]c3ccccc23)NC(=O)[C@H](C(C)C)NC(=O)[C@H](Cc2ccccc2)N(C)C(=O)[C@H](C(C)C)NC(=O)[C@H](C)NC(=O)CSC[C@@H](C(=O)NCCOCCOCCOCCOCCOCCOCCOCCOCCOCCOCCOCCOCCC(N)=O)NC(=O)[C@H](Cc2ccc(O)cc2)N(C)C(=O)[C@H](Cc2ccc(O)cc2)NC(=O)[C@H](CCCNC(=N)N)NC(=O)[C@H](CCCNC(=N)N)NC1=O` [compound 283] ({CH2CO}-AV[NMeF]VWNYY[Chg]IRRY[NMeY]C[PEG12]-NH2; thioether N-15): under setting [2], the Kd was 1 to 100 nM.

Turning to `CCC[C@@H]1NC(=O)[C@H]([C@@H](C)CC)NC(=O)[C@H]([C@@H](C)CC)NC(=O)[C@H](Cc2ccc(OC)cc2)NC(=O)[C@H](Cc2ccc(O)cc2)NC(=O)[C@H](CC(N)=O)NC(=O)[C@H](Cc2c[nH]c3ccccc23)N(C)C(=O)[C@H](C(C)C)NC(=O)[C@H](Cc2cccc(Cl)c2)N(C)C(=O)[C@H](C(C)C)NC(=O)[C@H](C)NC(=O)CSC[C@@H](C(=O)NCCOCCOCCOCCOCCC(N)=O)NC(=O)[C@H](Cc2ccc(O)cc2)N(C)C(=O)[C@H](Cc2ccccc2)NC(=O)[C@@H](CCCNC(=N)N)NC1=O` [compound 360] ({CH2CO}-AV[NMePhe(3-Cl)]V[NMeW]NYY(Me)II[Nva][dR]F[NMeY]C[PEG4]-NH2; thioether N-15), the dissociation constant Kd under setting [3] fell in the range of 1 to 100 nM.

Consider `CC[C@H](C)[C@@H]1NC(=O)[C@H](Cc2ccc(OC)cc2)NC(=O)[C@H](Cc2ccc(O)cc2)NC(=O)[C@H](CC(N)=O)NC(=O)[C@H](Cc2c[nH]c3ccccc23)N(C)C(=O)[C@H](C(C)C)NC(=O)[C@H](Cc2cccc(Cl)c2)N(C)C(=O)[C@H](C(C)C)NC(=O)[C@H](C)NC(=O)CSC[C@@H](C(=O)NCCOCCOCCOCCOCCC(N)=O)NC(=O)[C@H](Cc2ccc(O)cc2)N(C)C(=O)[C@H](Cc2ccccc2)NC(=O)[C@@H](CCCNC(=N)N)NC(=O)[C@H](CN)NC(=O)[C@H]([C@@H](C)CC)NC1=O` [compound 365] ({CH2CO}-AV[NMePhe(3-Cl)]V[NMeW]NYY(Me)II[Dap][dR]F[NMeY]C[PEG4]-NH2; thioether N-15), for which the Kd under setting [3] is 1 to 100 nM.

`CC[C@H](C)[C@@H]1NC(=O)[C@H](Cc2ccc(O)cc2)NC(=O)[C@H](Cc2ccc(O)cc2)NC(=O)[C@H](CC(N)=O)NC(=O)[C@H](Cc2c[nH]c3ccccc23)NC(=O)[C@H](C(C)C)NC(=O)[C@H](Cc2ccccc2)NC(=O)[C@H](C(C)C)NC(=O)[C@H](C)NC(=O)CSC[C@@H](C(N)=O)NC(=O)[C@H](Cc2ccc(O)cc2)N(C)C(=O)[C@H](Cc2ccc(O)cc2)NC(=O)[C@H](CCCNC(=N)N)NC(=O)[C@H](CCCCN)NC(=O)[C@H]([C@@H](C)CC)NC1=O` [compound 255]: the Kd under setting [2] was < 1 nM.

Regarding `CC[C@H](C)[C@@H]1NC(=O)[C@H](Cc2ccc(OC)cc2)NC(=O)[C@H](Cc2ccc(O)cc2)NC(=O)[C@H](CC(N)=O)NC(=O)[C@H](Cc2c[nH]c3ccccc23)N(C)C(=O)[C@H](C(C)C)NC(=O)[C@H](Cc2cccc(Cl)c2)N(C)C(=O)[C@H](CCC(=O)O)NC(=O)[C@H](C)NC(=O)CSC[C@@H](C(N)=O)NC(=O)[C@H](Cc2ccc(O)cc2)N(C)C(=O)[C@H](Cc2ccccc2)NC(=O)[C@H](CCCNC(=N)N)NC(=O)[C@H](CCCNC(=N)N)NC(=O)[C@H]([C@@H](C)CC)NC1=O` [compound 233], under setting [2], the Kd was < 1 nM.

The values are drawn from US20230203098A1, “HUMAN TRANSFERRIN RECEPTOR BINDING PEPTIDE” (priority 2020, published 2023).
